According to paper PMC5029711, “Functional characterization and anti-cancer action of the clinical phase II cardiac Na^+/K^+ ATPase inhibitor istaroxime: in vitro and in vivo properties and cross talk with the membrane androgen receptor” (Oncotarget, 2016):

Biological target: T1, Na^+/K^+ ATPase
T1 construct: gene ATP1A1; enzyme isolated from porcine cerebral cortex
Experiment: ATPase enzymatic activity assay (Sigma) with isolated porcine cerebral cortex enzyme
Assay type: biochemical, Sus scrofa

`C[C@]12CCC(=NOCCN)C[C@@H]1C(=O)C[C@@H]1[C@@H]2CC[C@]2(C)C(=O)CC[C@@H]12` [istaroxime, (E, Z) 3-(2-aminoethoxyimino)-5α-androstane-6, 17-trione] was tested, and the IC50 was 408 nM.
